According to patent US20220389019A1, “TrkB POSITIVE ALLOSTERIC MODULATORS” (Université de Strasbourg, priority 2019, published 2022):

Columns and labels:
[1] = system: PC12-TrkB cells; settings: BDNF, 48 hours
Protocol: (§1) Nnr5 PC12-TrkA and nnr5 PC12-TrkB cells are NGF-nonresponding mutant PC12 cells stably transfected with TrkA and TrkB, respectively. Activation of TrkA and TrkB was assessed in nnr5 PC12-TrkB or -TrkA cells by quantifying the level of phospho-Trk at Tyrosine 706 (Y706) after addition of BDNF (1 nM) or NGF (2 nM), respectively, for 15 min in presence or absence of TB001 at various concentrations (0.1, 10 and […]), as previously done. Activation of downstream signaling pathway was assessed by quantifying phospho-ERK in the same cells. Neurite outgrowth was determined by counting the number the number of cells bearing neurites longer than 2 cells in diameter, 48 hours after initial treatment, as described earlier.
(§2) Selectivity of LIT-TB001 toward signaling activation and biological function was tested in PC12-TrkB or PC12-TrkA cells, in presence of BDNF (TrkB) or NGF (TrkA). Key experiments were recapitulated in either TrkA or TrkB-expressing cells to test for TB selectivity: Trk phosphorylation, ERK phosphorylation and neurite outgrowth (FIG. 1).

[2] = target: TrkB (Homo sapiens, UniProt Q16620); settings: PC12-TrkB cells, BDNF 1 nM
Sequence of TrkB (Homo sapiens, UniProt Q16620) (Q16620 32-822, species assumed): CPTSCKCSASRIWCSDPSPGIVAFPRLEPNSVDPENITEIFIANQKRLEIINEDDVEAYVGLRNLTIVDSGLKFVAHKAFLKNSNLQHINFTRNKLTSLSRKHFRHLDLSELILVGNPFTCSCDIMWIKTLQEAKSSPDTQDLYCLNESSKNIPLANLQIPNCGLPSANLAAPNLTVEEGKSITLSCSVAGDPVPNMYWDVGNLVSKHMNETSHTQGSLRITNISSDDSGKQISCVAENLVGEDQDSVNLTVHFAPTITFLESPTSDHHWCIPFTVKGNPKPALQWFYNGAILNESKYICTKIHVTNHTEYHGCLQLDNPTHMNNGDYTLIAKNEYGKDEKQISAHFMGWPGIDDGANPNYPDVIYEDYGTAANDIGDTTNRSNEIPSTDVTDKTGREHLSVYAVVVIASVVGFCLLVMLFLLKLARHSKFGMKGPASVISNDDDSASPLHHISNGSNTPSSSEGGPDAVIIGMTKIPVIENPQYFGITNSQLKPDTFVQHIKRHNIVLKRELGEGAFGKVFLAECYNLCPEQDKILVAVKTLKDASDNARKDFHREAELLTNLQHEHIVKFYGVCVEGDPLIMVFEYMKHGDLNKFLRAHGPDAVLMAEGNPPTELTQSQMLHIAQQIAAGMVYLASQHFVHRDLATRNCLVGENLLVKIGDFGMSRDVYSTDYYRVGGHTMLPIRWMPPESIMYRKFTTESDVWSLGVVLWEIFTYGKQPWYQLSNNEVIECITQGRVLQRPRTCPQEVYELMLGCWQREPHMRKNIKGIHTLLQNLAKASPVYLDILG
Protocol: as §1, §2

[3] = target: TrkA (Homo sapiens, UniProt P04629); settings: PC12-TrkA cells, presence or absence of NGF (2 nM)
Sequence of TrkA (P04629 33-796, species assumed): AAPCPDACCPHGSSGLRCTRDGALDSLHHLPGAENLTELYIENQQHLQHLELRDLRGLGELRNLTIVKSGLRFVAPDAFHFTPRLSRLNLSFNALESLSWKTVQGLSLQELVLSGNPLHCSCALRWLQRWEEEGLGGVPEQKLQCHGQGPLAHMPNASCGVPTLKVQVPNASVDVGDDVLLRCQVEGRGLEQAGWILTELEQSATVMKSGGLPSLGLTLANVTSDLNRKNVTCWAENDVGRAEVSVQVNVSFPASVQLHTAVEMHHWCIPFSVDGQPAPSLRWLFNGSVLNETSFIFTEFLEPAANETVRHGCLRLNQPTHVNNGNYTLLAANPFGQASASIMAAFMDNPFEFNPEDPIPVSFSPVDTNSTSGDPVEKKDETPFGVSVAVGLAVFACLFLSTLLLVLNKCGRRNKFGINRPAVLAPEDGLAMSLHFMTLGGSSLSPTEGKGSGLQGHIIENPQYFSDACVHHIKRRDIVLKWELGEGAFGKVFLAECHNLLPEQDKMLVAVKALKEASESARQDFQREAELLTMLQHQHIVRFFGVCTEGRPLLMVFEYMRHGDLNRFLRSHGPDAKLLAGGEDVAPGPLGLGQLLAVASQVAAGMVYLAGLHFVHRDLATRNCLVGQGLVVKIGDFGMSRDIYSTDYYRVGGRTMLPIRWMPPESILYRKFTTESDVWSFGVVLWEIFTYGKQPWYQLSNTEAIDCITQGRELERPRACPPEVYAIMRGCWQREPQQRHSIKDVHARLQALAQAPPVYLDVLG
Protocol: as §1, §2

[4] = system: TrkB; test: TrkB phosphorylation assay: potentiation of BDNF-induced TrkB phosphorylation in cortical neurons; format: cell-based; settings: potentation at a PAM concentration of 10 nM of 0.4 nM BDNF-induced TrkB phosphorylation in cortical neurons
Source text: It is meant by “positive allosteric modulator” (PAM), also known as allosteric enhancer or potentiator, a compound that induces an amplification of the effect of receptor's response to the primary ligand without directly activating the receptor. Within this invention, PAM TrkB activity is related to the potentation of BDNF effects on the functional activity of the TrkB receptor, measured in vitro or in vivo by mean of a specific TrkB receptor phosphorylation assay.
In Vitro Activity of LIT-TB Derivatives in a TrkB Phosphorylation Assay

[5] = system: 45 kinases; test: Kinome profile (ExpresS Diversity Kinase Panel, TR-FRET LANCE); format: biochemical; settings: 10 μM
Protocol: FIG. 2 represents the […] inhibition of the catalytic activity of 45 kinases (ExpresS Diversity Kinase Panel, Eurofins Discovey, item # P10) by LIT-TB001 at a concentration of 10 μM. For each kinase, the effect of the compound on the ATP-induced kinase-mediated substrate phosphorylation is measured by the TR-FRET LANCE technology.
A kinome profile was next performed to test LIT-TB001 selectivity toward other kinases.

[6] = target: TrkB (Mus musculus, UniProt P15209); settings: C57BL/6 male mice, 0.5 and 1 mg/kg i.p., 1 h, cortex and hippocampus, western blot
Sequence of TrkB (Mus musculus, UniProt P15209) (P15209 32-821): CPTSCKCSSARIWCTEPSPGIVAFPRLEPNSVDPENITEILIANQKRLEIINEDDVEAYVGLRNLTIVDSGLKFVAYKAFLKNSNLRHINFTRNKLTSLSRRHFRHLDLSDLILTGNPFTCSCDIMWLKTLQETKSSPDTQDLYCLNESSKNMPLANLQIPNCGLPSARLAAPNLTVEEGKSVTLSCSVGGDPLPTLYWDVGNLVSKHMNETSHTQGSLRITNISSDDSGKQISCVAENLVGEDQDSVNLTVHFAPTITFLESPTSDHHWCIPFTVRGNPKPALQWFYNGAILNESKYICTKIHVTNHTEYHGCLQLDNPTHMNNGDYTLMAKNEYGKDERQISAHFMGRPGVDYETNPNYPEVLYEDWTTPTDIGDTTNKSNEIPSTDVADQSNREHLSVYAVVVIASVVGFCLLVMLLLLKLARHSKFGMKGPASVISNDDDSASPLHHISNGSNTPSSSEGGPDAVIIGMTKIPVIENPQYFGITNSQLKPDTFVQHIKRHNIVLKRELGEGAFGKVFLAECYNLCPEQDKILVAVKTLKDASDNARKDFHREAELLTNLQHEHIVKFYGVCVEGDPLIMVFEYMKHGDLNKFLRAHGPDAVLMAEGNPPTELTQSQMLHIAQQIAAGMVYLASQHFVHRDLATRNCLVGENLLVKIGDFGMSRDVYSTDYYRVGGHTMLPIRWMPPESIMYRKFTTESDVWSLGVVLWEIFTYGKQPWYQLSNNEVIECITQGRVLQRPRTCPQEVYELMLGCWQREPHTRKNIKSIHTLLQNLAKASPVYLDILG
Protocol: After 1 hour (unless indicated otherwise), mice were decapitated, blood was collected and brains were rapidly removed on ice. […] The Anti-TrkB antibody is used to quantify the total amount of TrkB. Anti-tubulin is used as a loading control. […] Phosphorylated levels of TrkB are calculated as a ratio between phospho and total TrkB bands in each region
A volume of 10 μl/g body weight was injected. After 1 hour (unless indicated otherwise), mice were decapitated, blood was collected and brains were rapidly removed on ice. Cortex and hippocampus were subsequently dissected and tissues were rapidly washed in ice-cold PBS and transferred into ice-cold solubilization buffer before homogenization at 4° C. Samples were centrifuged at 10,000×g for 10 min at 4° C. Protein concentrations were determined, equal amounts of proteins were loaded, and western blots were performed as described above.
C57Bl6 male mice received an i.p injection of 0.5 and 1 mg/kg for 1 hour before their brain was carefully removed and their cortex and hippocampus were sub-dissected. […] The level of TrkB phosphorylation at Tyrosine 816 was analyzed by western blot (FIG. 3).

Structure (SMILES): CN1CCN(c2ccc3nnc(CCC(=O)NC4CCN(Cc5ccccc5)CC4)n3n2)CC1 [LIT-TB001, N-(1-benzylpiperidin-4-yl)-3-[6-(4-methylpiperazin-1-yl)-[1,2,4]triazolo[4,3-b]pyridazin-3-yl] propanamide]
- neurite outgrowth [1]: potentiates BDNF-
- phosphorylation of ERK [2]: induced only in the presence of BDNF
- phosphorylation of TrkB ([2]; 15 min): induced only in the presence of BDNF
- phosphorylation of ERK [3]: did not induce phosphorylation of ERK or TrkA
- phosphorylation of TrkA [3]: did not induce phosphorylation of ERK or TrkA
- PAM TrkB activity [4]: +++ (+++: >35%)
- effect on catalytic activity of 45 kinases (among them TrkA) [5]: does not activate neither block the catalytic activity of the tested kinases
- TrkB activation (phospho-TrkB/total TrkB) in the brain [6]: efficiently increases TrkB activation in the brain

Structure (SMILES): CN1CCN(c2ccc3nnc(CCC(=O)N[C@@H]4CCN(Cc5ccccc5)C[C@@H]4F)n3n2)CC1 [LIT-TB047, N-[(3S,4R)-1-benzyl-3-fluoropiperidin-4-yl]-3-[6-(4-methylpiperazin-1-yl)-[1,2,4]triazolo[4,3-b]pyridazin-3-yl]propanamide]
- PAM TrkB activity [4]: ++ (++: 20-35%)

Structure (SMILES): CN1CCN(c2ccc3nnc(CCC(=O)N[C@H]4CCN(Cc5ccccc5)C[C@@H]4F)n3n2)CC1 [LIT-TB048, N-[(3S,4S)-1-benzyl-3-fluoropiperidin-4-yl]-3-[6-(4-methylpiperazin-1-yl)-[1,2,4]triazolo[4,3-b]pyridazin-3-yl]propanamide]
- PAM TrkB activity [4]: +++ (+++: >35%)

Structure (SMILES): CN1CCN(c2ccc3nnc(CCC(=O)N[C@@H]4CCN(Cc5ccccc5)C[C@H]4F)n3n2)CC1 [LIT-TB049, N-[(3R,4R)-1-benzyl-3-fluoropiperidin-4-yl]-3-[6-(4-methylpiperazin-1-yl)-[1,2,4]triazolo[4,3-b]pyridazin-3-yl]propanamide]
- PAM TrkB activity [4]: +++ (+++: >35%)

Structure (SMILES): COc1ccc(CN2CC[C@H](NC(=O)CCc3nnc4ccc(N5CCN(C)CC5)nn34)[C@@H](F)C2)cc1 [LIT-TB052, N-[(3S,4S)-3-fluoro-1-[(4-methoxyphenyl)methyl]piperidin-4-yl]-3-[6-(4-methylpiperazin-1-yl)-[1,2,4]triazolo[4,3-b]pyridazin-3-yl]propanamide]
- PAM TrkB activity [4]: +++ (+++: >35%)

Structure (SMILES): COc1ccc(CN2CC[C@@H](NC(=O)CCc3nnc4ccc(N5CCN(C)CC5)nn34)[C@H](F)C2)cc1 [LIT-TB053, N-[(3R,4R)-3-fluoro-1-[(4-methoxyphenyl)methyl]piperidin-4-yl]-3-[6-(4-methylpiperazin-1-yl)-[1,2,4]triazolo[4,3-b]pyridazin-3-yl]propanamide]
- PAM TrkB activity [4]: ++ (++: 20-35%)
